Experimental data taken from patent US20080057086A1, “COLON-TARGETED ORAL FORMULATIONS OF CYTIDINE ANALOGS” (PHARMION CORPORATION, priority 2006, published 2008).

Experiments:
Type in all cases: in vitro ADME
human colonic tissue = experiment: Permeation enhancement in human colonic strips; details: without enzymatic inhibition (FIGS. 3, 4)
Text: (§1) This model allows evaluation of the absorption potential of drugs and differences in drug absorption across the human jejunum, ileum, and colon and is based on Ungell et al. “Membrane Transport of Drugs in Different Regions of the Intestinal Tract of the Rat”, J. Pharm. Sci. 87:360-366, (1998) and Nejdfors et al. “Mucosal in vitro Permeability in the Intestinal Tract of the Pig, the Rat, and Man: Species and Region Related Differences”, Scand. J. Gastroenterol. 35:501-507, (2000). Permeation experiments were performed for 5-azacytidine in the jejunal, ileal, and colonic tissues originating from the same human donor. Post-mortem human whole intestine was obtained from the International Institute for the Advancement of Medicine (IIAM). Tissues were used within 24 hours of the organ's removal. Tissues were maintained in cold transport media before being stripped. The segments were cut along the mesenteric border, the underlying musculature was stripped off, and the epithelium was rinsed with ice cold normal saline. The stripped tissues were mounted within the vertical USSING chambers (Harvard Apparatus, Holliston, Mass.). In these studies, 5-azacytidine permeability was measured in both absolute rate and relative to atenolol (internal control). In all cases the net apparent permeability was assessed in the mucosal to serosal direction only.

[1] = test system: human intestinal tissue (jejunum, ileum, colon); experiment: Permeability in viable human intestinal strips (USSING chambers), mucosal to serosal
Text: as §1

[2] = Caco 2 monolayer permeability of 5-azacytidine with and without excipients; details: human
Procedure: The Caco-2 cells are an intestinal epithelial cell line (human colon adenocarcinoma established from the primary colon tumor (adenocarcinoma)) Monolayers of Caco-2 cells are used to classify the intestinal absorption potential of a drug candidate molecule. The assay was carried out in accordance with P. Artursson and J. Karlsson, “Correlation between Oral Drug Absorption in Humans and Apparent Drug Permeability Coefficients in Human Intestinal Epithelial (Caco-2) Cells”, Biochem. Biophys. Res. Commun. 175, 880 (1991).
Briefly, Caco-2 cells were grown to confluence on collagen-coated, microporous polycarbonate in 12-well plates. For the assay buffer, Dulbecco's Phosphate Buffered Saline at pH 7.4 was used. […] The test compound was then dosed on either the apical or basolateral side of the Caco-2 monolayer, and flux across the monolayer was determined both one and two hours after dosing. Results were compared to control high permeability compounds metoprolol and antipyrine and low permeability compounds atenolol and ranitidine, and were expressed as Papp (apparent permeability) compared to reference compound standards. Integrity of the monolayers was determine both before and after testing by measuring the […] electrical resistance (TEER) value. Apparent permeability is calculated as (dCr/dt)×Vr/(A×C0) where dCr/dt is the slope of the cumulative concentration in the receiver compartment versus time in micromolar per second, Vr is the volume of the receiver compartment in cubic centimeters, A is the area of the cell monolayer, and C0 is the measured initial donor concentration in micromolar.

- Permeability with permeation enhancer (human colonic tissue; various concentrations of Labrafil): did not appear to affect
- Papp at 1000 micromolar ([2]; Caco-2, pH 7.4, with Carboxymethyl Cellulose 0.1%): 0.26 ± 0.09 ×10⁻⁶ cm/s
- Papp at 1000 micromolar ([2]; Caco-2, pH 7.4, with Chitosan 0.1%): 0.15 ± 0.01 ×10⁻⁶ cm/s
- Papp at 1000 micromolar ([2]; Caco-2, pH 7.4, with Labrafil 0.001%): 0.27 ± 0.02 ×10⁻⁶ cm/s
- Papp at 1000 micromolar ([2]; Caco-2, pH 7.4, with Labrafil 0.01%): 0.23 ± 0.04 ×10⁻⁶ cm/s
- Papp at 1000 micromolar ([2]; Caco-2, pH 7.4, with Labrafil 0.05%): 0.38 ± 0.13 ×10⁻⁶ cm/s
- Papp at 1000 micromolar ([2]; Caco-2, pH 7.4, with Labrafil 0.1%): 0.34 ± 0.002 ×10⁻⁶ cm/s
- Papp at 1000 micromolar ([2]; Caco-2, pH 7.4, with Poloxamer F127 0.1%): 0.13 ± 0.02 ×10⁻⁶ cm/s
- Papp at 1000 micromolar ([2]; Caco-2, pH 7.4, with Sodium Laurate 0.001%): 0.19 ± 0.04 ×10⁻⁶ cm/s
- Papp at 1000 micromolar ([2]; Caco-2, pH 7.4, with Sodium Laurate 0.01%): 0.19 ± 0.02 ×10⁻⁶ cm/s
- Papp at 1000 micromolar ([2]; Caco-2, pH 7.4, with Sodium Laurate 0.05%): 0.17 ± 0.03 ×10⁻⁶ cm/s
- Papp at 1000 micromolar ([2]; Caco-2, pH 7.4, with Solutol 0.1%): 0.26 ± 0.04 ×10⁻⁶ cm/s
- Papp at 1000 micromolar ([2]; Caco-2, pH 7.4, with TPGS 0.001%): 0.33 ± 0.08 ×10⁻⁶ cm/s
- Papp at 1000 micromolar ([2]; Caco-2, pH 7.4, with TPGS 0.01%): 0.3 ± 0.05 ×10⁻⁶ cm/s
- Papp at 1000 micromolar ([2]; Caco-2, pH 7.4, with TPGS 0.05%): 0.45 ± 0.18 ×10⁻⁶ cm/s
- Papp at 1000 micromolar ([2]; Caco-2, pH 7.4, with TPGS 0.1%): 0.38 ± 0.09 ×10⁻⁶ cm/s
- Papp A→B at 1000 micromolar ([2]; Caco-2, pH 7.4, read-out: Papp (apical to basolateral permeability)): 0.15 ± 0.02 ×10⁻⁶ cm/s
SMILES: Nc1ncn([C@@H]2O[C@H](CO)[C@@H](O)[C@H]2O)c(=O)n1 [5-azacytidine, 4-amino-1-β-D-ribofuranosyl-1,3,5-triazin-2(1H)-one]
- Permeability with permeation enhancer (human colonic tissue; various concentrations of TPGS): trend toward greater permeability with increasing levels of TPGS
- Absolute mucosal to serosal permeability by intestinal region ([1]; colon relative to jejunum and ileum, multiple donors (FIG. 1)): greatest in the colon
- Effect of enzymatic inhibitors on absolute permeability ([1]; with ketoconazole and THU, increase maximal in jejunum and ileum, relatively small in colon): increased the absolute permeability in all GI tract regions
- Papp at 1000 micromolar ([2]; Caco-2, pH 7.4, with Sodium Laurate 0.1%, high permeability due to toxic effects of sodium laurate on Caco 2 cells): 15.8 ± 1.77 ×10⁻⁶ cm/s
